For this experiment, the target named is T1, Sex hormone-binding globulin (Homo sapiens, UniProt P04278).
T1 sequence (P04278 whole entry): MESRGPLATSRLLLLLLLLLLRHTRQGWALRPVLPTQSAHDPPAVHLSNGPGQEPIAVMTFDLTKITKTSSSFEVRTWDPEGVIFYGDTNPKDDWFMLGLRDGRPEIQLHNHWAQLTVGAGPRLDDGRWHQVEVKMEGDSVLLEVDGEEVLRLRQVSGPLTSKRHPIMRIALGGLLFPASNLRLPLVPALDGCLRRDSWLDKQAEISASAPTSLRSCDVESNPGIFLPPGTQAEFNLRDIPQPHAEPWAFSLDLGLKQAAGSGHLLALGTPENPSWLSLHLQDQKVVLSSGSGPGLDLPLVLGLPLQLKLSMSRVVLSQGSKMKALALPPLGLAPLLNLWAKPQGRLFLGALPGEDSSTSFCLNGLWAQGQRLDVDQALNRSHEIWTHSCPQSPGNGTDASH
Description: Displacement of [3H]5alpha dihydrotestosterone from human sex hormone binding globulin.
Compound `C#C[C@]1(O)CC[C@H]2[C@@H]3CCC4=CC(=O)CC[C@@H]4[C@H]3C(=C)C[C@@]21CC` [ETONOGESTREL] showed a Kd of 5.89 nM.
`O=c1c(-c2ccc(O)cc2)coc2cc(O)cc(O)c12` [GENISTEIN] showed a Kd of 39800 nM.
`C#C[C@]1(O)CC[C@H]2[C@@H]3CCC4=CC(=O)CCC4=C3C=C[C@@]21CC` [GESTRINONE] gave a Kd of 7.76 nM.
The compound `C[C@]12CCC(=O)C=C1CC[C@@H]1[C@@H]2[C@@H](O)C[C@@]2(C)[C@H]1CC[C@]2(O)C(=O)CO` [HYDROCORTISONE] showed a Kd of 631 nM.
In turn, `CC(=O)[C@@]1(O)CC[C@H]2[C@@H]3CCC4=CC(=O)CC[C@]4(C)[C@H]3CC[C@@]21C` [HYDROXYPROGESTERONE] gave a Kd of 100 nM.
`COc1cc(C[C@H]2COC(=O)[C@@H]2Cc2ccc(O)c(OC)c2)ccc1O` [MATAIRESINOL] showed a Kd of 309 nM.
In the case of `CC(=O)O[C@]1(C(C)=O)CC[C@H]2[C@@H]3C[C@H](C)C4=CC(=O)CC[C@]4(C)[C@H]3CC[C@@]21C` [MEDROXYPROGESTERONE ACETATE] it was 631 nM.
In turn, `C[C@]12CCC(=O)C[C@@H]1CC[C@@H]1[C@@H]2CC[C@@]2(C)[C@H]1CC[C@]2(C)O` [MESTANOLONE] had a Kd of 1.55 nM.
As for `C[C@H]1CC(=O)C[C@@H]2CC[C@H]3[C@@H]4CC[C@H](O)[C@@]4(C)CC[C@@H]3[C@]21C` [MESTEROLONE], the Kd is 0.251 nM.
Regarding `C[C@]12CCC(=O)C=C1CC[C@@H]1[C@@H]2CC[C@@]2(C)[C@H]1CC[C@]2(C)O` [METHYLTESTOSTERONE], the affinity, expressed as Kd, was 3.72 nM.
`C[C@]12CC[C@H]3[C@@H](CCC4=CC(=O)CC[C@@H]43)[C@@H]1CC[C@@H]2O` [NANDROLONE] showed a Kd of 501 nM.
`C#C[C@]1(O)CC[C@H]2[C@@H]3CCC4=CC(=O)CC[C@@H]4[C@H]3CC[C@@]21C` [NORETHINDRONE] gave a Kd of 10.7 nM.
With `C[C@]12CC[C@H](O)CC1=CC[C@@H]1[C@@H]2CC[C@]2(C)C(=O)CC[C@@H]12` [PRASTERONE], the affinity, expressed as Kd, was 14.5 nM.
Take `CC(=O)[C@H]1CC[C@H]2[C@@H]3CC=C4C[C@@H](O)CC[C@]4(C)[C@H]3CC[C@]12C` [PREGNENOLONE]: the Kd was 70.8 nM.
In the case of `CC(=O)[C@H]1CC[C@H]2[C@@H]3CCC4=CC(=O)CC[C@]4(C)[C@H]3CC[C@]12C` [PROGESTERONE] it was 115 nM; in that of `C[C@]12CCC(=O)C[C@@H]1CC[C@@H]1[C@@H]2CC[C@]2(C)[C@@H](O)CC[C@@H]12` [STANOLONE], 0.182 nM; in that of `C[C@]12CC[C@H]3[C@@H](CCC4=CC(=O)CC[C@@]43C)[C@@H]1CC[C@@H]2O` [TESTOSTERONE], 0.631 nM.

The values above are taken from ChEMBL document CHEMBL1142400, “An updated steroid benchmark set and its application in the discovery of novel nanomolar ligands of sex hormone-binding globulin” (J Med Chem, 2008).
